The text below walks through data of ChEMBL document CHEMBL1201862, “PubChem BioAssay data set” (2004).

Test [1] deals with P388/ADR. Nature of the test: cells. The test is classed as functional. The note with it: Mus musculus.
Test [2] relates to SN12K1. The test can be described thus: cells. The note with it: Homo sapiens. The test is classed as functional.
For test [3], the system named is P388. The test can be described thus: cells. It counts as functional. The note with it: Mus musculus.
In test [4] the test system is Streptococcus sp. 'group A'. Nature of the test: growth inhibition of control SK(-) GAS strain, dose response, counter-screen for streptokinase expression inhibitor project, luminescence, kanamycin, BacTiterGlo, confirmation (AID 1900). The test is classed as functional, organism-based. In general terms: Counterscreens check selectivity or assay interference.
Test [5] concerns Streptococcus. Nature of the test: Group A Streptococcus viability loss, dose response, counter-screen for streptokinase expression inhibitor project, luminescence, BacTiterGlo (AID 1915).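 Further: potency for reduction of bacterial viability or growth.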 It counts as functional, organism-based.
Test [6] deals with T1, Short transient receptor potential channel 4 (Mus musculus, UniProt Q9QUQ5).
T1 sequence (Q9QUQ5 whole entry): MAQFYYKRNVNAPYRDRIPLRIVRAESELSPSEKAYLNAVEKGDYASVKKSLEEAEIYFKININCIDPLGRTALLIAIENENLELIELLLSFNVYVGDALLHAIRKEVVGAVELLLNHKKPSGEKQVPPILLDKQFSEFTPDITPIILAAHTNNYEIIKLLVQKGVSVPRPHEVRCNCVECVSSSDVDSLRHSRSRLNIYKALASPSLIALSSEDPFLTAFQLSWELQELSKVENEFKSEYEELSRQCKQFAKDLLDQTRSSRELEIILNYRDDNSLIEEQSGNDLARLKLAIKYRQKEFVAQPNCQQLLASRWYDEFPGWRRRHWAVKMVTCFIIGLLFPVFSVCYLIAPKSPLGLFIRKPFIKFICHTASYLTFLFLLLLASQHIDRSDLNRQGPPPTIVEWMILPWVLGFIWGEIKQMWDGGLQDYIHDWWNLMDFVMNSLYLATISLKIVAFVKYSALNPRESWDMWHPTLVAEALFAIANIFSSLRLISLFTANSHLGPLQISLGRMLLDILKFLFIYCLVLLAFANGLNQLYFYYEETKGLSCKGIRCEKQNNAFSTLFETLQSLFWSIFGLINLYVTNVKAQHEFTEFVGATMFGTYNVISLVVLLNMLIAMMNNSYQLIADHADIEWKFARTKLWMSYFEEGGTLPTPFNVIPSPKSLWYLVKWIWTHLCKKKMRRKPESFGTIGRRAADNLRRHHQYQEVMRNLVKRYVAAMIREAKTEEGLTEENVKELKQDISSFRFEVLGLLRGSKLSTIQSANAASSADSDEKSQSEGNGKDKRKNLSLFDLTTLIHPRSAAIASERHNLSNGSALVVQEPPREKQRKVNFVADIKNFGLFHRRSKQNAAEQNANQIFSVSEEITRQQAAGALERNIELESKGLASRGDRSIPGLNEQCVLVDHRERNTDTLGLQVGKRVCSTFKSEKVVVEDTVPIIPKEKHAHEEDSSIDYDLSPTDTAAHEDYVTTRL
Nature of the test: mouse TRPC4 channel activators, dose response, cell-based, HEK293 TRPC4/mu-opioid, Fluo-4 calcium (AID 434937). The test is classed as functional.

Test [7] is described as follows: Shn3 3'UTR reporter inhibitors, dose response, cell-based, Clone20 osteoblasts, firefly luciferase, cherry-picked (AID 624132).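 Further: firefly luciferase luminescence from reporter carrying the Shn3 3'UTR in osteoblasts.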 It counts as functional.
Test [8] can be described thus: HepG2 cell cytotoxicity, dose response, cytotoxicity control for Shn3 inhibitor project, CellTiter-Glo, cherry-picked (AID 624134). The test is classed as functional, cell-based.
The nature of test [9]: control 3'UTR Renilla luciferase suppression, dose response, counter-screen for Shn3 inhibitor project, cell-based, Clone20-Shn3RL, cherry-picked (AID 624133). The test is classed as functional.
A short description of test [10]: P. falciparum 3D7-ScDHODH growth inhibitors, dose response, SYBR Green, dry powder samples (AID 1159570).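 Further: parasite growth measured after 72 hours of compound exposure.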 The test is classed as functional, cell-based.
Test [11] in a line: P. falciparum Dd2 growth inhibitors, dose response, SYBR Green, cherry-picked samples (AID 1159567). The test is classed as functional, cell-based.
Test [12] can be described thus: P. falciparum Dd2 growth inhibitors, dose response, SYBR Green, dry powder samples (AID 1159566).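 Further: potency for growth inhibition with lower SYBR green DNA signal.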 It counts as functional, cell-based.
Test [13] can be described thus: P. falciparum ATP4 D1247Y mutant growth inhibitors, dose response, NITD609-resistant line, SYBR Green, dry powder (AID 1159571).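 Further: parasites synchronized at ring stage by sorbitol before testing.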 It counts as functional, cell-based.
Test [14] relates to HEK293. Nature of the test: inhibitors of LMP1-driven NF-kB reporter, dose response, cell-based, HEK293, luciferase, cherry-pick (AID 588343). Conditions: Homo sapiens. It counts as functional.
In test [15] the target is Nonstructural protein 1 (Influenza A virus, UniProt Q194T2). The test is classed as functional, Influenza A virus (A/California/07/2009(H1N1)).
Nonstructural protein 1, sequence (Q194T2 whole entry): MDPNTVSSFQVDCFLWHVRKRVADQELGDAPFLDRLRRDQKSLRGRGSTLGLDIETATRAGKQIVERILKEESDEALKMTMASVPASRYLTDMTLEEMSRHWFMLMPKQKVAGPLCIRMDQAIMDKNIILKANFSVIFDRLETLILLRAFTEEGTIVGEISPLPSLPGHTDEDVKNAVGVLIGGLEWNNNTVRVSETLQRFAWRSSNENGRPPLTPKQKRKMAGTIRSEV
Test [16] can be described thus: cytotoxicity in HEK-293T cells, dose response, cytotoxicity control for TCR NF-kB inhibitor project, luminescence, T-cell screen hits (AID 489026).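 Further: cells exposed to compound about 14 hours before the viability readout.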 The test is classed as functional, cell-based.
Test [17] addresses T2, RNA-binding protein pos-1 (Caenorhabditis elegans, UniProt G5EF15).
T2 sequence (G5EF15 whole entry): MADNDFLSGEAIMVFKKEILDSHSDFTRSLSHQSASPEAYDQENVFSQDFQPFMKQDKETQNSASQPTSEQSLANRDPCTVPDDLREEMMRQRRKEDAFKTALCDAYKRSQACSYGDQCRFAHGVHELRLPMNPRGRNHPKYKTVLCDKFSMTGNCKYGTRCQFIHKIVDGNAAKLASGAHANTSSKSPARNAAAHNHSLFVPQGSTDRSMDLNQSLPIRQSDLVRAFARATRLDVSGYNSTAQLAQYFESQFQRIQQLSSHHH
Nature of the test: inhibitors of POS-1/mex-3 RNA binding, dose response, biochemical, fluorescence polarization (AID 1964).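 Further: purified POS-1 fused to maltose binding protein made in E. coli; potency of compounds blocking POS-1 binding to fluorescent RNA.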

Test [18] addresses T3, Zinc finger protein mex-5 (Caenorhabditis elegans, UniProt Q9XUB2).
T3 sequence (Q9XUB2 whole entry): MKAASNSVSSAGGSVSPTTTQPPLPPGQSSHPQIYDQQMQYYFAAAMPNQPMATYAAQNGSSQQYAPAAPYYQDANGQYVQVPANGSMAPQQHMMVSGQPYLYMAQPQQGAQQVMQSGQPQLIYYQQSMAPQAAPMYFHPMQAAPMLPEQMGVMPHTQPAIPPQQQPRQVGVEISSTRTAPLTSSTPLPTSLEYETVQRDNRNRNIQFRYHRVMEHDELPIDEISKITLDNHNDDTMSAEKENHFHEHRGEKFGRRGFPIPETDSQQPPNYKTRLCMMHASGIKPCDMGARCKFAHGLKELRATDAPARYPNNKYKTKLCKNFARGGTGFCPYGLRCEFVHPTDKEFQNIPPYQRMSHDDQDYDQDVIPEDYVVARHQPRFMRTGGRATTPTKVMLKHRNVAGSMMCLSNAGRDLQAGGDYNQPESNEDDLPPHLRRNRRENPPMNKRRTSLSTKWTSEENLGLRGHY
The test can be described thus: MEX-5/TCR-2 RNA interaction inhibitors, dose response, biochemical, C. elegans, fluorescence polarization (AID 1960).

The target of test [19] is Induced myeloid leukemia cell differentiation protein Mcl-1 (Homo sapiens, UniProt Q07820). It counts as functional.
Induced myeloid leukemia cell differentiation protein Mcl-1, sequence (Q07820 whole entry): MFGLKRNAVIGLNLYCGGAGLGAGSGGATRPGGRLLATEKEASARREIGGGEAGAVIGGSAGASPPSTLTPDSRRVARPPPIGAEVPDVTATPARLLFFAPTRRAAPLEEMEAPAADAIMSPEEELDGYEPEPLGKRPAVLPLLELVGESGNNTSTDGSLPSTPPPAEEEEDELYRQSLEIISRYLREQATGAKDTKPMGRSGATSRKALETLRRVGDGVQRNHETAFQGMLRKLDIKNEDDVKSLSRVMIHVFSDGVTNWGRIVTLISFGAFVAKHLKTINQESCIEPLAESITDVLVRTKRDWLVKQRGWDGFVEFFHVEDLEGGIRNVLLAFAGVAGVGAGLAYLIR

Each structure is given as a SMILES string. Active and inactive are the calls of the source.

One may read the GI50 as the concentration that inhibits growth by half. For `C=C1C(=O)OC2C=C(C)CC3C=C(CCC=C(C)CCC12)C(=O)O3` (stereo unspecified), the GI50 in test [1] is 22.1 µM (inactive); in test [2] it was 58.3 µM (inactive); in test [3], 12.4 µM (inactive).

By EC50 is commonly meant the concentration giving half of the maximal effect. In the case of `Cc1ccccc1OCC(=O)NNC(=S)NC(=O)c1ccco1`, the EC50 in test [4] was 0.599 µM (active); in test [5], 2.45 µM (active); in test [6], 9.44 µM (active).

As to `CC1OC(CO)(n2cnc3c(N)ncnc32)C(O)C1O` (stereo unspecified), the GI50 in [1], in test [2] and in test [3] was > 100 µM (inactive) each time.

What is called AC50 is the concentration giving half of the maximal activity seen. Regarding `CN(Cc1nccn1C)C(=O)c1cc(COc2ccc3ncccc3c2)on1`, the concentration at half-maximal activity (AC50) was 6.97 µM (active) in test [7], > 70 µM (inactive) in test [8] and 36.8 µM (active) in [9].

Take `CCOc1ccccc1CN1CCNC(=O)C1CC(=O)N(C)CCc1ccccn1` (stereo unspecified): the half-maximal effective concentration (EC50) in [6] is 2.11 µM (active).

As for `CCOC(=O)[C@@H]1CCNC[C@@H]1c1ccccc1`, in [6], the EC50 is 3.35 µM (active).

For the compound `CC(=O)OC1C(O)C(C)OC(OC(=O)C2CCC3C(C2)OC2(CC(OC(=O)/C=C/c4ccccc4)C(C)CO2)C32CO2)C1OC1OC(C)C(O)C(O)C1O` (stereo unspecified), the values for the GI50 in [1], in test [2] and in test [3] were 20.9 µM (inactive), 0.0348 µM (active) and 0.306 µM (active), respectively.

In the case of `CCC/C=C/C=C/C(=O)OC1/C(=C/C(=O)OC)CC2CC(C(C)O)OC(=O)CC(O)CC3CC(OC(C)=O)C(C)(C)C(O)(CC4C/C(=C/C(=O)OC)CC(/C=C/C(C)(C)C1(O)O2)O4)O3` (stereo unspecified), the GI50 in [3] is 2.16 µM (inactive).

With `CC(C)(C)[S@@+]([O-])N1Cc2cc(C(=O)NCCc3ccncc3)nc(-c3cccc(-c4ccccc4)c3)c2[C@H]1CCO`, the AC50 in [10] was 1.08 µM (active); in test [11] it was 0.414 µM (active); in test [12], 0.366 µM (active); in test [13] it was 0.537 µM (active).

For `CC1Cc2ccccc2N1c1ncnc(N)c1[N+](=O)[O-]` (stereo unspecified), the concentration at half-maximal activity (AC50) in [14] was 2.41 µM (active).

As to `CC(C)CCCCCCCCCCCCC(=O)NCC(=O)NC1C(O)C(O)C(Nc2[nH]cnc3ncnc2-3)OC1C(O)CO` (stereo unspecified), the GI50 is 0.00128 µM (active) in test [1], 0.00531 µM (active) in [2] and 0.000211 µM (active) in [3].

In the case of `Cc1cc(C)c(-c2csc(NC(=O)CCCc3nc(O)c4ccccc4n3)n2)c(C)c1`, the AC50 was 2.97 µM (active) in test [7], > 70 µM (inactive) in test [8] and 5.38 µM (active) in test [9].

As for `C#CC[N+](CCO)(CCO)CCCCCCCCCCCCCCCCCC`, the GI50 in test [1] is 8.55 µM (inactive); in test [2], 13 µM (inactive); in test [3] it was 1.08 µM (active).

As for `CC(C)(C)OC(=O)NC1CCC(C(C)(C)C)CC1` (stereo unspecified), the GI50 in [1] is 30 µM (inactive); in [2] it was 45.4 µM (inactive); in test [3] it was 15.9 µM (inactive).

Broadly, the IC50 is the midpoint of a concentration-inhibition curve. As to `CN1CCN(C(=O)c2cccc(-c3cc(O)c4ncccc4c3)c2)CC1`, in test [15], the IC50 was 11.4 µM (active).

For `Cc1onc(-c2ccccc2Cl)c1C(=O)N1CCN(C/C=C/c2ccccc2)CC1`, the 50% effective concentration (EC50) in [6] is 5.96 µM (active).

With `Cc1ccc(O)c(NC(=O)CCC2CCCCC2)c1`, in [16], the IC50 was > 80 µM (inactive).

With `CC1=NN(C(N)=S)C(=O)C1N=Nc1cccc(C(=O)O)c1` (stereo unspecified), the concentration giving a half-maximal response (EC50) is 35.1 µM (active) in test [17] and 22.7 µM (active) in test [18]. Also, in [14], the AC50 is 33.1 µM (active).

As to `CCC(C)N1C(=O)/C(=C/c2ccc3c(c2)CCN3CCCCl)C(=O)NC1=S` (stereo unspecified), the IC50 in test [19] was 5.31 µM (active).

With `CC1Sc2ccc(S(=O)(=O)N3CCC(C(=O)Nc4cccc(Cl)c4)CC3)cc2NC1=O` (stereo unspecified), the AC50 was 3.27 µM (active) in [7], 44.6 µM (active) in test [8] and 8.77 µM (active) in test [9].

On to `CN1CCN(c2cc(N3CCCCCC3)c(F)cc2[N+](=O)[O-])CC1`, for which the 50% inhibitory concentration (IC50) in test [15] is > 100 µM (active).
